Legend:
[1] = target: T1, CHRM2 (Homo sapiens, UniProt P08172); assay: Agonist-induced exocytosis of granzyme B, sandwich ELISA (Example 9); format: cell-based; conditions: agonist 10 uM, 60 minutes
T1 construct: the entire human GPCR; mouse immunoglobulin kappa signal peptide (N); expressed in transfected cells
T1 sequence (P08172 2-466): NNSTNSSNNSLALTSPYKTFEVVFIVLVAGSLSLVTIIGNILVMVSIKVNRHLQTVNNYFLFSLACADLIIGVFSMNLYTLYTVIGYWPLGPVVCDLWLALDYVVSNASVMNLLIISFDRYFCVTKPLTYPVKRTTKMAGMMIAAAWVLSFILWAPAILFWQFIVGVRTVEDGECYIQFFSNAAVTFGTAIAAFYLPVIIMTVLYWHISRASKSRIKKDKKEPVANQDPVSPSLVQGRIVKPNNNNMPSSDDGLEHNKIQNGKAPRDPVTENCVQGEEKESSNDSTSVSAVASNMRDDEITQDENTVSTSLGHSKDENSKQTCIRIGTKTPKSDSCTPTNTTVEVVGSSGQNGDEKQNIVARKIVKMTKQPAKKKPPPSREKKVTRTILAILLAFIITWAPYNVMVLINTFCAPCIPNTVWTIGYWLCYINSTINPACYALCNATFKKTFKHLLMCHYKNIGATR
Description: Human granzyme B was selected as reporter, chimeric promoter of hCMV-MoLV5′LTR as promoter for reporter expression, RBL-2H3 as hemopoyetic cells with professional regulated exocytosis and several GPCRs as exocytosis modulators under the control of Moloney Leukaemia virus 5′-LTR (MoMLV5′LTR, SEQ ID NO:3) as promoter for expression of exocytosis modulators. […] Vectors for expression of granzyme B had the chimeric promoter of hCMV-MoLV5′LTR-GranzymeB-IRES-NGFR with hygromycin resistance for stable transfections. Vectors for GPCR were electroporated first, cells were selected with neomycin at 500 ug/mL for about two weeks and cells were analysed by flow cytometry (Guava Technologies, USA) with anti-cmyc tag antibody (anti-cmyc-FITC, clone 9E10, Sigma-Aldrich, USA) for surface expression. Positive cells were separated by magnetic separation using anti-cmyc monoclonal antibody conjugated to biotin (Miltenyi Biotec, Germany) and streptavidin-MACS (Miltenyi Biotec, Germany). After growing positive fraction of cells was again analysed by flow cytometry with the anti-cmyc tag antibody. Positive cells were individually electroporated with the vector for expression human granzyme B using a microporator (Digital Bio Technology, South Korea) and after 48 hours hygromycin at 1500 ug/mL and neomycin at 500 ug/mL were added to culture for selection. After selection for about 2 weeks cells were analysed by flow cytometry (Guava Technologies, USA) with an antibody against NGFR coupled to FITC. Positive population where magnetically separated by MACS using anti-NGFR-MACS sup.R (Miltenyi Biotec, Germany). Sorted populations were again analysed again by flow cytometry to check both the expression of the GPCR with the anti-cmyc tag antibody and with anti-NGFR antibody to check granzyme B expression. […] GPCRs included were: SSTR2 and CHRM2 as alpha-i coupled GPCRs; AGTR1 and bradykinin type B1 receptor (BDKRB1) as alpha-q coupled GPCRs and AVPR2 as alpha-s coupled GPCR. […] Cells were seeded the night before experiment at 100.000 cells per well of a 96-well microplate in 100 uL of complete cell culture medium. Next day cells were washed with HBSS buffer and incubated with the ligand (agonist) at 10 uM of each GPCR in 30 uL of HBSS buffer at 37 Celsius degrees for 60 minutes and after centrifugation at 400 g for 5 minutes supernatants were analysed for human granzyme B protein by a sandwich ELISA specific for human granzyme B (Ucytech, Netherlands).

[2] = target: T2, hIL8 receptor (hIL8RA) (Homo sapiens, UniProt P25024); assay: Multiplex assay, Sensor A channel (hIL8RA and human granzyme A) (Example 14); format: cell-based; conditions: Condition 4: Sensor A 12500 + Sensor B 5000 cells, carbachol 10 uM, no IL8, granzyme A substrate 1 uM
T2 construct: the entire human GPCR; mouse immunoglobulin kappa signal peptide (N); expressed in transfected cells
T2 sequence (P25024 3-350 limits assumed): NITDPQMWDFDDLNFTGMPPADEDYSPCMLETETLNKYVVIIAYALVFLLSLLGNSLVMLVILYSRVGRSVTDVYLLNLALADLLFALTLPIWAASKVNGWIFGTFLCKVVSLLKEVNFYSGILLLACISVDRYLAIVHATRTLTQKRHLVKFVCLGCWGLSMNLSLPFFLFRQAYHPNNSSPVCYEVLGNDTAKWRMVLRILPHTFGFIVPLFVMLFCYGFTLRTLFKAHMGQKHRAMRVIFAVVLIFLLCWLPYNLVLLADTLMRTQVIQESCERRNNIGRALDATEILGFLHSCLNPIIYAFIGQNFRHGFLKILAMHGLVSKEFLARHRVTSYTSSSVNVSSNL
Description: The principle of multiplex reactions is illustrated in FIG. 5. RBL2H3 cells were stably transfected with a pair of a GPCR as exocytosis modulator and a granzyme as a granule stored reporter as described in example 9. Combinations included were: hIL8 receptor (hIL8RA) and human granzyme A (Sensor A) and CHRM2 and granzyme B expressing cells of example #12 (Sensor B). Human IL8 was used as agonist of hll_8R while carbachol was used as CHRM2 agonist. […] As both substrates uses the same pair of fluorophore (FAM) and quencher (TAMRA) only one substrate could be added to reaction vessel for specific detection at 535 nm after excitation at 485 nm. […] Sensors, agonists and substrates were mixed in a total volume of 20 uL of HBSS in a black walled 384 well microplate and the microplate was incubated at 37 Celsius degrees in a BMG-Labtech microplate fluorimeter and read at 0, 15, 30, 45 and 60 minutes.

## C[N+](C)(C)CCOC(N)=O [Carbachol, carbachol]
[1]; 100.000 cells, dilution 2250, after subtraction of 0.2 blank
  Absorbance at maximal dilution of ELISA tested: 0.6
[1]; granzyme B ELISA
  Sensitivity (minimal amount of cells needed): <150 cells
[2]
  Signal to background at 30 min: 0.78

Source: patent publication US9347942B2, “Ultrasensitive cell based sensors and uses thereof” (CANVAX BIOTECH SL, priority 2010, dated 2016)
